Data on nine compounds can be found in patent publication EP4692072A1, “PHOTOCHROMIC COMPOUND, PROPARGYL ALCOHOL COMPOUND, CURABLE COMPOSITION, OPTICAL ARTICLE, LENS, AND SPECTACLES” (TOKUYAMA CORPORATION, priority 2023, dated 2024).

Data set [1] can be described thus: Accelerated deterioration (xenon weather meter X25, 120 hours) of binder sheet prepared by binder method. Format: physicochemical. The settings on record: 0.25 mmol per 100 parts by mass resin, A120/A0×100 after 120 hours xenon weather meter. The method, then:
(§1) • [1] Maximum Absorption Wavelength (λmax): The maximum absorption wavelength after color development, measured using a spectrophotometer (instantaneous multichannel photodetector MCPD3000) manufactured by Otsuka Electronics Co., Ltd. was used as an indicator for the color tone during the color development. • [2] 23°C Color Optical Density (A23): A difference between an absorbancy measured after light irradiation at 23°C for 300 seconds {ε(300)} and an absorbancy without light irradiation ε(0) at the maximum absorption wavelength was used as an indicator for the color optical density. […] 23°C color fading half-life [τ1/2 (sec.)]: A time required for the absorbancy of the sample at the maximum absorption wavelength to decrease to 1/2 of {ε(300)-ε(0)} when the light irradiation was terminated after the light irradiation at 23°C for 300 seconds, was used as an indicator for the color fading speed. The shorter this time, the higher the color fading speed. • [4] Residual rate (A120/A0×100): The obtained photochromic plastic lens was subjected to accelerated deterioration using a xenon weather meter X25 manufactured by Suga Test Instruments Co., Ltd. for 120 hours. Subsequently, the color optical density was evaluated before and after the test, then a color optical density before the test (A0) and a color optical density after the test (A120) were measured, and a ratio (A120/A0) was defined as a residual rate. The residual rate was used as an indicator for a color developing durability. The higher the residual rate, the higher the color developing durability. The results of Examples 26, 50, and Comparative Examples 1 to 8 are summarized in Table 1, and the results of Examples 27 to 49 are summarized in Tables 2 and 3.
(§2) A binder sheet was prepared using the following method. The binder sheet consisted of a first optical sheet, a first adhesive layer, a photochromic layer, a second adhesive layer, and a second optical sheet, which are laminated in this order. The first optical sheet and the second optical sheet were made of a polycarbonate sheet with a thickness of 400 µm.
(§3) A 2L four-necked flask equipped with agitation blades, a cooling tube, a thermometer, and a nitrogen gas introducing tube was charged with 315 parts by mass of polycarbonate diol having a number-average molecular weight of 1000, 100 parts by mass of isophorone diisocyanate, and 72 parts by mass of toluene, and the mixture was reacted under nitrogen atmosphere at 100°C for 7 hours to synthesize a urethane prepolymer having an isocyanate group on its terminal. After completion of the urethane prepolymer reaction, the reaction liquid was cooled to approximately 0°C, then dissolved in 205 parts by mass of t-butyl alcohol and 382 parts by mass of diethyl ketone, and then the liquid temperature was maintained at 0°C. Subsequently, into this reaction liquid, a mixture of 21.3 parts by mass of bis-(4-aminocyclohexyl)methane as a chain extender and 20 parts by mass of diethyl ketone was dripped over within 30 minutes, and the mixture was reacted at 0°C for 1 hour. Then, into the mixture, 8.1 parts by mass of 1,2,2,6,6-pentamethyl-4-aminopiperidine was dripped, and the mixture was reacted at 0°C for 1 hour to obtain a diethyl ketone solution of a terminal non-reactive urethaneurea resin.
(§4) To 100 parts by mass of the obtained terminal non-reactive urethaneurea resin solution, the photochromic compound in Example 1 (represented by formula (28) above), 6.3 parts by mass of 4,4'-methylenebis(cyclohexyl isocyanate) isomer mixture (polyisocyanate compound), furthermore 0.4 part by mass of ethylene bis(oxyethylene)bis[3-(5-tert-butyl-4-hydroxy-m-tolyl)propionate] as an antioxidant, and 0.06 part by mass of DOW CORNING TORAY L-7001 as a surfactant were added, and the mixture was stirred and mixed at room temperature to obtain a photochromic layer forming composition. […]

Data set [2] can be described thus: Photochromic properties of binder sheet (photochromic layer prepared by binder method). Format: physicochemical. To be noted: 0.25 mmol per 100 parts by mass resin; for A23: 23°C color optical density ε(300)-ε(0); for Maximum absorption wavelength: urethaneurea resin binder sheet, after color development. The method, then:
as §1, §2, §3, §4

Regarding `CCCC1(CCC)c2ccccc2-c2c1c1c(c3cc(OC)c(-c4ccc(OC)cc4OC)cc23)OC(c2ccc(C)cc2)(c2ccc(N(C)c3ccccc3)cc2)C=C1` (centres unmarked) [Example 19], in data set [1], the Residual rate is given as 91%. Besides, in data set [2], the A23 is reported as 0.88 - and the Maximum absorption wavelength stood at 492 nm. Further, in data set [2] (listed as Formula (80)), the A23 was 1.14 - and the Maximum absorption wavelength is reported as 604 nm.
`COCCC1(CCOC)c2ccccc2-c2c1c1c(c3cc(OC)c(-c4ccc(N(c5ccccc5)c5ccccc5)cc4)cc23)OC(c2ccc(Oc3ccccc3)cc2)(c2ccc(N(C)c3ccccc3)cc2)C=C1` (centres unmarked) [Example 23] displayed a Residual rate in data set [1] of 89%. Further, in data set [2], the A23 is reported as 1.02 - and the Maximum absorption wavelength stood at 506 nm. Also, in data set [2] (listed as Formula (85)), the A23 is recorded as 1.06 - and the Maximum absorption wavelength was determined as 609 nm.
With `COc1ccc(N(C)c2ccc(C3(c4ccc(CCO[Si](C)(C)CC[Si](O[Si](C)(C)C)(O[Si](C)(C)C)O[Si](C)(C)C)cc4)C=Cc4c5c(c6cc(N(C)c7ccccc7)c(OC)cc6c4O3)-c3ccc(C(F)(F)F)cc3C53CCC(C)(C)CC3)cc2)cc1` (centres unmarked) [Example 60], the Residual rate turned out to be 88% in data set [1] and 89% in data set [1] (listed as Formula (121)). Moreover, the values for the A23 in data set [2] and in data set [2] (listed as Formula (121)) were 0.84 - and 0.87 -, respectively. Besides, the Maximum absorption wavelength in data set [2] was 524 nm; in data set [2] (listed as Formula (121)) it was 582 nm.
In the case of `CCCCOCCC1(CCOCCCC)c2ccccc2-c2c1c1c(c3cc(OC)c(NC(=O)c4ccccc4)cc23)OC(c2ccc(N(C)c3ccccc3)cc2)(c2ccc(OC)c(F)c2)C=C1` (centres unmarked) [Example 53], the Residual rate in data set [1] was 87%; in data set [1] (listed as Formula (95)) it was 89%. Further, the figures for the A23 in data set [2] and in data set [2] (listed as Formula (95)) were 0.75 - and 0.96 -, respectively. The Maximum absorption wavelength in data set [2] is 502 nm; in data set [2] (listed as Formula (95)) it was 607 nm.
For the compound `CCCC1(CCC)c2cc(OC(F)(F)F)ccc2-c2c1c1c(c3cc(OC)c(Sc4c(C)cccc4C)cc23)OC(c2ccc(N(C)c3ccccc3)cc2)(c2ccc(OC)c(OC)c2)C=C1` (centres unmarked) [Example 57], the Residual rate in data set [1] is 91%; in data set [1] (listed as Formula (110)) it was 90%. Moreover, the A23 is 0.85 - in data set [2] and 0.87 - in data set [2] (listed as Formula (110)). Moreover, the Maximum absorption wavelength is reported as 493 nm in data set [2] and 618 nm in data set [2] (listed as Formula (110)).
Regarding `COc1ccc(C2(c3ccc(N(C)c4ccccc4)cc3)C=Cc3c4c(c5cc(-c6ccc(N7CCOCC7)cc6)c(OC)cc5c3O2)-c2ccccc2C4(C)C)cc1` (centres unmarked) [Example 1], the Residual rate in data set [1] was 89%; in data set [1] (listed as Formula (37)), 90%. Further, the A23 is given as 0.97 - in data set [2] and 1.06 - in data set [2] (listed as Formula (37)). For the same compound, the Maximum absorption wavelength in data set [2] worked out at 502 nm; in data set [2] (listed as Formula (37)), 603 nm.
Turning to `COCCCCC1(CCCCOC)c2cc(Sc3c(C)cccc3C)ccc2-c2c1c1c(c3cc(OC)ccc23)OC(c2ccc(OC)cc2)(c2ccc(N(C)c3ccc(OC)cc3)cc2)C=C1` (centres unmarked) [Example 11], the values for the Residual rate in data set [1] and in data set [1] (listed as Formula (65)) were 90% and 89%, respectively. The A23 in data set [2] is 0.51 -; in data set [2] (listed as Formula (65)), 0.97 -. Further, the values for the Maximum absorption wavelength in data set [2] and in data set [2] (listed as Formula (65)) were 479 nm and 612 nm, respectively.
For the compound `CCCCN(c1ccccc1)c1ccc(C2(c3ccc(C)cc3)C=Cc3c4c(c5cc(N6CCOCC6)c(OC)cc5c3O2)-c2ccccc2C4(CC)CC)cc1` (centres unmarked) [Example 10], in data set [1], the Residual rate was found to be 91%. Also, in data set [2], the A23 is given as 1.35 - and the Maximum absorption wavelength is on record as 516 nm. Further, in data set [2] (listed as Formula (62)), the A23 is given as 1.12 - and the Maximum absorption wavelength is reported as 594 nm.
For the compound `CCN(c1ccc(OC)cc1)c1ccc(C2(c3ccc(OC)cc3)C=Cc3c4c(c5cc(-c6ccc(N7CCOCC7)cc6)c(OC)cc5c3O2)-c2ccccc2C4(C)C)cc1` (centres unmarked) [Example 25], the Residual rate in data set [1] is 87%. Also, in data set [2], the A23 is recorded as 0.88 - and the Maximum absorption wavelength is recorded as 505 nm. In data set [2] (listed as Formula (88)), the A23 is given as 0.97 - and the Maximum absorption wavelength is reported as 606 nm.
